These results are taken from patent US11285158B2, “Uses of pyrimidopyrimidinones as SIK inhibitors” (The General Hospital Corporation, priority 2017, dated 2022).

Structures are written as SMILES.

In experiment [1] the test system is B16 cells. Nature of the experiment: In vitro MITF induction in B16 cells. The settings on record: for maximal fold induction / EC50: Mus musculus, Table 5; for maximal fold induction: B16 cells, read-out: Highest fold mitf induction in B16 cells; for EC50: readout not given, presumably mitf induction in B16 cells; for Highest fold Mitf induction: Table 6, cells not given, same values as Table 5 (B16 cells). It is filed as cell-based, mouse. How it is done: qPCR. mRNA was extracted from cells using the RNeasy Mini Kit (Qiagen®). KAPA SYBR® FAST Universal One-Step qRT-PCR Kit (KAPA BIOSYSTEMS®) was used to prepare mRNA samples for qPCR and samples were analyzed using the 7500 Fast Real Time PCR System (Applied Biosystems®). The relative expression of each gene was calculated by 7500 Fast System Software program, which utilizes Ct normalized to mRNA levels of RPL11 to calculate relative expression. Results are reported relative to control cells.
Tables 2 to 5 below show the effects of exemplary […] compounds on skin darkening, including an in vitro test of MITF induction following the same protocol as described above in paragraph 333, wherein exemplary SIK inhibitor compounds were tested for their in vitro induction of MITF.
Table 5 below additionally provides characteristics of exemplary SIK inhibitor compounds, MITF induction in B16 cells, EC50, log P, and experimental conditions for skin darkening experiments in mice and humans.

The test system of experiment [2] is human breast skin explants. As to the kind of experiment: Human skin explants: darkening/pigmentation after topical SIK inhibitor. In kind it is cell-based. The settings on record: Human Skin Explants. How it is done:
Image and Colorimeter analysis were conducted 24 hours after the last treatment.
Human pigmentation experiments. Full thickness human breast skin explants were cultured in petri dishes with a solid phase and liquid phase phenol red free DMEM medium with […], 5% fungizone (Gibco®), and 10% FBS. Passive application refers to simply applying the treatment to skin without further rubbing or manipulation. Mechanical application refers to application of agents to skin with further rubbing of treatment with 10 clockwise turns of a gloved cotton swab applicator. Skin was harvested, fixed, and processed for paraffin embedding. Sections were cut from paraffin blocks, and sections were stained utilizing hematoxylin and eosin (morphology) and Fontana-Masson (melanin).

The mark [3] stands for this setting: Table 2, passive topical application.

A word on the EC50: it is the concentration needed to bring the measured effect to its halfway point. The low end stands for higher potency in that assay, the high end for lower potency in that assay. With `CCN1CCN(Cc2ccc(Nc3ncc4c(n3)N(c3ccc(OC)cc3OC)C(=O)N(c3c(C)cccc3C)C4)cc2C(F)(F)F)CC1` [YKL-04-103], in experiment [1], the maximal fold induction turned out to be 10.2 and a half-maximal effect (EC50) was put at 0.001 µM.
For `COc1ccc(N2C(=O)N(c3c(C)cccc3C)Cc3cnc(Nc4ccc(CN5CCN(C)CC5)cc4)nc32)c(OC)c1` [YKL-04-136-01], in experiment [1], the maximal fold induction was 9.7 and the 50% effective concentration (EC50) was found to be 0.053 µM.
On to `COc1ccc(N2C(=O)N(c3c(C)cccc3C)Cc3cnc(Nc4ccc(CCCN5CCOCC5)cc4)nc32)c(OC)c1` [YKL-04-108], for which the “Results (skin darkening)” value in experiment [2] (Table 3) is “Darkens”. Further, in experiment [1], the maximal fold induction turned out to be 13.9 and the response was half-maximal at 0.014 µM (EC50).
In the case of `Cc1cccc(C)c1N1Cc2cnc3nc2N(C/C=C\COc2cc(ccc2N2CCN(C)CC2)N3)C1=O` [YKL-05-204-1], the “Results (skin darkening)” value in experiment [2] (setting [3]) and in experiment [2] (Table 4) was “Darkens” in each case.
`COc1ccc(N2C(=O)N(c3c(C)cccc3C)Cc3cnc(Nc4cnn(C5CCOCC5)c4)nc32)c(OC)c1` [YKL-04-105]: in experiment [1], the maximal fold induction came to 9.9 and the EC50 was found to be 0.005 µM.
The corresponding values for `COc1ccc(N2C(=O)N(c3c(C)cccc3C)Cc3cnc(Nc4cc(C)c(OCCN5CCOCC5)c(C)c4)nc32)c(OC)c1` [YKL-04-107] are 3.6 and 0.015 µM.
The corresponding values for `COc1cc(N2CCN(C(C)=O)CC2)ccc1N1C(=O)N(c2c(C)cccc2C)Cc2cnc(Nc3ccc(N4CCN(C)CC4)cc3)nc21` [YKL-04-136-05] are 8.9 and 0.042 µM.
The corresponding values for `COc1ccc(N2C(=O)N(c3c(C)cccc3Cl)Cc3cnc(Nc4ccc(N5CCN(C)CC5)cc4)nc32)c(OC)c1` [YKL-04-136-03] are 6.2 and 0.025 µM.
With `COc1ccc(N2C(=O)N(c3c(C)cccc3C)Cc3cnc(Nc4cnn(CCN(C)C)c4)nc32)c(OC)c1` [YKL-04-136-02], in experiment [1], the maximal fold induction was found to be 16.1 and the EC50 is 0.021 µM.
In the case of `CN1CCN(c2ccc(Nc3ncc4c(n3)N(C)C(=O)N(c3ccccc3)C4)cc2)CC1` [HG-11-137-01], the “Results (skin darkening)” value in experiment [2] (Table 3) was “Darkens”. For the same compound, in experiment [1], the maximal fold induction came out at 4.82 and the “Highest fold Mitf induction” value amounted to 4.82 fold.
On to `COc1ccc(N2C(=O)N(c3c(C)cccc3C)Cc3cnc(Nc4ccc(N5CCOCC5)c(OC)c4)nc32)c(OC)c1` [YKL-04-115], for which, in experiment [1], the maximal fold induction was 10.1 and it took 0.024 µM to reach a half-maximal effect (EC50).
For `Cc1cccc(C)c1N1Cc2cnc(Nc3ccc(N4CCN(C)CC4)cc3)nc2N(C2CCC2)C1=O` [YKL-06-060], the “Results (skin darkening)” value in experiment [2] (setting [3]) and in experiment [2] (Table 4) was “Darkens” each time.
`COc1cc(N2CCN(C)CC2)ccc1Nc1ncc2c(n1)N(C)C(=O)N(c1ccccc1)C2` [HG-11-139-02]: in experiment [1], the maximal fold induction came out at 5.76 and the “Highest fold Mitf induction” value came to 5.76 fold.
For the compound `Cc1cccc(C)c1N1Cc2cnc3nc2N(C/C=C/COc2cc(ccc2N2CCN(C)CC2)N3)C1=O` [YKL-05-204-2], the “Results (skin darkening)” value in experiment [2] (setting [3]) and in experiment [2] (Table 4) was “Darkens” in each case.
As for `COc1ccc(N2C(=O)N(c3c(C)cccc3C)Cc3cnc(Nc4ccc(N5CCOCC5)c(C(F)(F)F)c4)nc32)c(OC)c1` [YKL-04-104], in experiment [1], the maximal fold induction was found to be 8 and a half-maximal response (EC50) required 0.021 µM.
Regarding `COc1ccc(N2C(=O)N(c3c(C)cccc3C)Cc3cnc(Nc4cc(N5CCOCC5)cc(N5CCN(C)CC5)c4)nc32)c(OC)c1` [HG-11-143-01], in experiment [1], the maximal fold induction amounted to 6.8 and a half-maximal effect (EC50) was put at 0.057 µM.
As for `Cc1cccc(C)c1N1Cc2cnc(Nc3ccc(N4CCN(C)CC4)cc3)nc2N(C(C)C)C1=O` [YKL-06-058], the “Results (skin darkening)” value in experiment [2] (setting [3]) and in experiment [2] (Table 4) was “Darkens” throughout.
As for `COc1ccc(N2C(=O)N(c3c(C)cccc3C)Cc3cnc(Nc4cnn(CCN(C)C)c4)nc32)nc1` [YKL-04-136-08], in experiment [1], the maximal fold induction amounted to 4.1 and the midpoint of the response, the EC50, lay at 0.014 µM.
Taken in the same sequence, the figures for `COc1ccc(N2C(=O)N(c3c(C)cccc3C)Cc3cnc(Nc4cc(N5CCN(C)CC5)cc(C(F)(F)F)c4)nc32)c(OC)c1` [YKL-04-112] were 5.2 and 0.215 µM.
The corresponding values for `COc1ccc(N2C(=O)N(c3c(C)cccc3C)Cc3cnc(Nc4cc(N5CCOCC5)cc(C(F)(F)F)c4)nc32)c(OC)c1` [YKL-04-113] are 11.2 and 0.657 µM.
Take `COc1ccc(N2C(=O)N(c3c(C)cccc3C)Cc3cnc(Nc4ccc(CN5CCN(C)CC5)cc4)nc32)nc1` [YKL-04-136-10]: in experiment [1], the maximal fold induction worked out at 16.3 and the “Highest fold Mitf induction” value came out at 16.28 fold.
With `COc1ccc(N2C(=O)N(c3c(C)cccc3C)Cc3cnc(Nc4cc(CN5CCN(C)CC5)cc(C(F)(F)F)c4)nc32)c(OC)c1` [YKL-04-125], in experiment [1], the maximal fold induction worked out at 9.7 and the EC50 stood at 0.133 µM.
Turning to `COc1ccc(N2C(=O)N(c3c(C)cccc3C)Cc3cnc(Nc4ccc(N5CCN(C)CC5)c(OC)c4)nc32)c(OC)c1` [YKL-04-114], in experiment [1], the maximal fold induction turned out to be 10.4 and it took 0.067 µM to reach a half-maximal effect (EC50).
The corresponding values for `COc1cc(N2CCN(C(C)=O)CC2)ccc1N1C(=O)N(c2c(C)cccc2C)Cc2cnc(Nc3cnn(CCN(C)C)c3)nc21` [YKL-04-136-07] are 2.4 and 0.127 µM.
In the case of `COc1cc(N2CCN(C(C)=O)CC2)ccc1N1C(=O)N(c2c(C)cccc2C)Cc2cnc(Nc3ccc(CN4CCN(C)CC4)cc3)nc21` [YKL-04-136-11], in experiment [1], the maximal fold induction is 9.58 and the “Highest fold Mitf induction” value amounted to 9.58 fold.
As to `Cc1cccc(C)c1NC(=O)N1C/C=C\COc2cccc(c2)Nc2cc1ncn2` [HG-10-32-01], in experiment [1], the maximal fold induction was determined as 2.4 and the “Highest fold Mitf induction” value turned out to be 2.4 fold.
In the case of `Cc1cccc(C)c1N1Cc2cnc3nc2N(C/C=C/COCc2cccc(c2)N3)C1=O` [YKL-05-200-2], the “Results (skin darkening)” value in experiment [2] (setting [3]) and in experiment [2] (Table 4) was “Darkens” each time.
Turning to `COc1ccc(N2C(=O)N(c3c(C)cccc3Cl)Cc3cnc(Nc4cnn(CCN(C)C)c4)nc32)c(OC)c1` [YKL-04-136-04], in experiment [1], the maximal fold induction was determined as 9.2 and the response was half-maximal at 0.015 µM (EC50).
As to `Cc1cccc(C)c1N1Cc2cnc(Nc3ccc(N4CCN(C)CC4)cc3)nc2N(C)C1=O` [YKL-06-29], the “Results (skin darkening)” value in experiment [2] (setting [3]) and in experiment [2] (Table 4) was “Darkens” throughout.
For `COc1ccc(N2C(=O)N(c3c(C)cccc3C)Cc3cnc(Nc4cc(CN5CCOCC5)cc(C(F)(F)F)c4)nc32)c(OC)c1` [YKL-04-118], in experiment [1], the maximal fold induction came to 1.1 and the EC50 was 1420 µM.
Taken in the same sequence, the figures for `COc1ccc(N2C(=O)N(c3c(C)cccc3C)Cc3cnc(Nc4ccc(N5CCN(C)CC5)cc4)nc32)nc1` [YKL-04-136-06] were 26.9 and 0.009 µM.
The corresponding values for `COc1ccc(N2C(=O)N(c3c(C)cccc3C)Cc3cnc(Nc4cccc(OCCN5CCOCC5)c4)nc32)c(OC)c1` [YKL-04-106] are 9 and 0.074 µM.
Consider `Cc1cccc(Cl)c1N1Cc2cnc3nc2N(C/C=C\CCOc2cccc(c2)N3)C1=O` [YKL-05-201-1], for which the “Results (skin darkening)” value in experiment [2] (setting [3]) and in experiment [2] (Table 4) was “Darkens” in each case.
